In patent publication US20240051985A1, “METTL3 MODULATORS” (ACCENT THERAPEUTICS, INC., priority 2020, published 2024):

How the values were obtained:
[1] = biological target: PRMT5-MEP50 (Homo sapiens, UniProt O14744); experiment: PRMT5 assay (3H-SAM flashplate); settings: PRMT5 biochemical assay
Protocol: Assays were performed in a 25 μl-volume in 384-well V-bottom polypropylene microplates (Greiner Bio-One, cat. No. 781280) at ambient temperature. Optimized 1× assay buffer was 20 mM Tris-HCl pH 8.0, 1 mM DTT, […]. For compound screening PRMT5-MEP50 (final concentration, f.c.=2.5 nM) was added using a Multidrop Combi (ThermoFisher Scientific, Waltham, MA) and preincubated for 5 min. Reactions were started by adding 3′ biotinylated histone H4 peptide acetylated on serine 1 (Ac-[…]-Biotin) (f.c.=100 nM) and 3H-SAM (f.c.=250 nM) substrates. Reactions proceeded for 60 minutes and were quenched with excess non-radioactive SAM (f.c.=15 μM). The reactions were then transferred to streptavidin-coated flashplates and incubated for 2 hours at 25° C. Following two washing cycles with 0.1% Tween-20, the plates were sealed and read on a TopCount (PerkinElmer, Waltham, MA) plate-based scintillation counter. For determination of kinetic parameters, reaction times were optimized so that measurements were taken during the initial velocity phase of the reaction.

[2] = biological target: METTL3/METTL14 (Homo sapiens, UniProt Q86U44); experiment: METTL3-14 standard enzyme assay (3H-SAM flashplate); settings: METTL3 biochemical assay
Protocol: METTL3-14 Standard Enzyme Assay
Assays were performed in a 25 μl-volume in 384-well V-bottom polypropylene microplates (Greiner Bio-One, cat. No. 781280) at ambient temperature. Optimized 1× assay buffer was 20 mM HEPES pH 7.5, 50 mM KCl, 250 μM MgCl2, 1 mM DTT, 0.01% Tween, 0.01% BSG, 0.004 U/μl RNAseOUT (cat. No. 10777019, ThermoFisher Scientific, Waltham, MA). For compound screening METTL3/METTL14 (final concentration, f.c.=2.5 nM) was added using a Multidrop Combi (ThermoFisher Scientific, Waltham, MA) and preincubated for 5 min. Reactions were started by adding 3′ biotinylated RNA (UCUGGACUAAA-biotin) (f.c.=100 nM) and 3H-SAM (f.c.=100 nM) substrates. Reactions proceeded for 30 minutes and were quenched with excess non-radioactive SAM (f.c.=15 μM). The reactions were then transferred to streptavidin-coated flashplates and incubated for 2 hours at 25° C. Following two washing cycles with 0.1% Tween-20, the plates were sealed and read on a TopCount (PerkinElmer, Waltham, MA) plate-based scintillation counter. For determination of kinetic parameters, reaction times were optimized so that measurements were taken during the initial velocity phase of the reaction.

METTL3/METTL14, sequence (Q86U44 whole entry, species assumed): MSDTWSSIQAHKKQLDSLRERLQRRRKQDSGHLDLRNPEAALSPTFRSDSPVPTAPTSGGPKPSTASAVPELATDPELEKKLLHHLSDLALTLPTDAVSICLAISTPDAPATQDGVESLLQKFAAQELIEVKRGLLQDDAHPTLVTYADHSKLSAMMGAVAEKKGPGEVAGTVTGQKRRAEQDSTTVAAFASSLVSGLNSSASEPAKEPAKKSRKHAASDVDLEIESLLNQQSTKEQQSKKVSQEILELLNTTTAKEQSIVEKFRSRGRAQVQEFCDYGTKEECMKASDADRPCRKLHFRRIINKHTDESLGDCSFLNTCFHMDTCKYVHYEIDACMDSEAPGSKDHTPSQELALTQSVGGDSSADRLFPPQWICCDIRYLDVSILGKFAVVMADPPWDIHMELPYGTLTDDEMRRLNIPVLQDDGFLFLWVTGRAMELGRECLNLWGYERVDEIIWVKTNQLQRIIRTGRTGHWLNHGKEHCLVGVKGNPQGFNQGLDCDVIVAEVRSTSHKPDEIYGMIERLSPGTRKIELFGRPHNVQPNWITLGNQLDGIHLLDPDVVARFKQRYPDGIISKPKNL
METTL3/METTL14, sequence (Q9HCE5 whole entry partner, species assumed): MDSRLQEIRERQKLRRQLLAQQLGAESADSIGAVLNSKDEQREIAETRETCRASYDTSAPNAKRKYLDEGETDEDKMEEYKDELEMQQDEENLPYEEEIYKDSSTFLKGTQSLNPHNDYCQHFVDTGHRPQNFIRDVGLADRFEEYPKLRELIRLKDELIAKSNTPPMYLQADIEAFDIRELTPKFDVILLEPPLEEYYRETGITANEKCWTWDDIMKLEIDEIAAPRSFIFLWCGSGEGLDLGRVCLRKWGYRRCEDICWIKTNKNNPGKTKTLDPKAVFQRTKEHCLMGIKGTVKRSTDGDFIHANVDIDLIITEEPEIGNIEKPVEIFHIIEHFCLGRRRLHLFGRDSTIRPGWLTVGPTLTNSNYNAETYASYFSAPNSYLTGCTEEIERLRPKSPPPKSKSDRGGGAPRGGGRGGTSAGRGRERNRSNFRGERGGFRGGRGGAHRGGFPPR
PRMT5-MEP50, sequence (O14744 whole entry): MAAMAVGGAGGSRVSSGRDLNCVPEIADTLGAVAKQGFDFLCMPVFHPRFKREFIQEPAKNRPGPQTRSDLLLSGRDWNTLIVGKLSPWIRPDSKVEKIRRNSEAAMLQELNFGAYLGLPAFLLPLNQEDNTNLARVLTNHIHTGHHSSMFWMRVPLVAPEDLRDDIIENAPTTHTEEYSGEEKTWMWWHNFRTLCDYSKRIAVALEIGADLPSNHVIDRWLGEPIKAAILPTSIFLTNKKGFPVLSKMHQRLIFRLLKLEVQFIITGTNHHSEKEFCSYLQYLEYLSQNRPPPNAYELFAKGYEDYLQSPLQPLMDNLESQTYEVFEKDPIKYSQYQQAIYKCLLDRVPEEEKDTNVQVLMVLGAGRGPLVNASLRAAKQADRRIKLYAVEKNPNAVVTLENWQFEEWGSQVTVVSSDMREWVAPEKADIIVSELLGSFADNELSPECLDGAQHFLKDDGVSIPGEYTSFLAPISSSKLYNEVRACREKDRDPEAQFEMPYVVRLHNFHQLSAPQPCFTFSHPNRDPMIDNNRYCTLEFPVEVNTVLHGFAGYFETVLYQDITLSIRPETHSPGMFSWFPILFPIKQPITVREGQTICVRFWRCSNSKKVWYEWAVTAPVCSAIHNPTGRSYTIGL
PRMT5-MEP50, sequence (Q9BQA1 whole entry partner): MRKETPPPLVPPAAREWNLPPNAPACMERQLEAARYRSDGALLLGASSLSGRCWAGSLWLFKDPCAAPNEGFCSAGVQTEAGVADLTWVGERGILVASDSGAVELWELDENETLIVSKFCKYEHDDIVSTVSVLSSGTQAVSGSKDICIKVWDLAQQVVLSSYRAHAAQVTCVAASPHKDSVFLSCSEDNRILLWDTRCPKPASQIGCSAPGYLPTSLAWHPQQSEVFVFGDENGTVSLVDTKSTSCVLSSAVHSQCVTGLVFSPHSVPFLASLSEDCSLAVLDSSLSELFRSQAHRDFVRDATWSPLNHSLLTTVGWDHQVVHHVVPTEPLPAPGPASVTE

IC50 ([2]; Table 4) | Compound | other results
0.1 to 1 µM | CN1CCC(N(CCCC#N)C(=O)[C@H]2O[C@@H](n3cc(-c4ccn(C)n4)c4c(N)ncnc43)[C@H](O)[C@@H]2O)CC1 [Compound I-155] | IC50 ([1]; Table 4): 0.01 to 0.1 µM
0.1 to 1 µM | CN1CC(NC(=O)[C@H]2O[C@@H](n3cc(-c4ccn(C)n4)c4c(N)ncnc43)[C@H](O)[C@@H]2O)C1 [Compound I-216] | IC50 ([1]; Table 4): 0.01 to 0.1 µM
≥ 1 µM | Cc1ccc(NC(=O)[C@H]2O[C@@H](n3cc(-c4ccn(C)n4)c4c(N)ncnc43)[C@H](O)[C@@H]2O)cc1Cl [Compound I-71] | –
0.1 to 1 µM | Cn1ccc(-c2cn([C@@H]3O[C@H](C(=O)Nc4cccc(C#N)c4)[C@@H](O)[C@H]3O)c3ncnc(N)c23)n1 [Compound I-105] | –
0.1 to 1 µM | CN1CCN(c2ccc(NC(=O)[C@H]3O[C@@H](n4cc(-c5ccn(C)n5)c5c(N)ncnc54)[C@H](O)[C@@H]3O)nc2)CC1 [Compound I-127] | –
0.1 to 1 µM | Cn1ccc(-c2cn([C@@H]3O[C@H](C(=O)Nc4ccc(-n5cnnn5)cc4)[C@@H](O)[C@H]3O)c3ncnc(N)c23)n1 [Compound I-138] | –
≥ 1 µM | Cn1ccc(-c2cn([C@@H]3O[C@H](C(=O)NCC4CCOC4)[C@@H](O)[C@H]3O)c3ncnc(N)c23)n1 (some centres unmarked) [Compound I-89] | –
≥ 1 µM | Cc1ccc(Cl)c(NC(=O)[C@H]2O[C@@H](n3cc(-c4ccn(C)n4)c4c(N)ncnc43)[C@H](O)[C@@H]2O)c1 [Compound I-72] | –
≥ 1 µM | Cn1ccc(-c2cn([C@@H]3O[C@H](C(=O)Nc4cc(Cl)cc(Cl)c4)[C@@H](O)[C@H]3O)c3ncnc(N)c23)n1 [Compound I-67] | –

The next lines start with the compound.

Compound | IC50 ([2]; Table 4) | other results
CN1CCC(N(CCCC(=O)O)C(=O)[C@H]2O[C@@H](n3cc(-c4ccn(C)n4)c4c(N)ncnc43)[C@H](O)[C@@H]2O)CC1 [Compound I-58, 4-{1-[(2S,3S,4R,5R)-5-[4-amino-5-(1-methyl-1H-pyrazol-3-yl)-7H-pyrrolo[2,3-d]pyrimidin-7-yl]-3,4-dihydroxyoxolan-2-yl]-N-(1-methylpiperidin-4-yl)formamido}butanoic acid] | ≥ 1 µM | IC50 ([1]; Table 4): 0.01 to 0.1 µM
Nc1ncnc2c1c(-n1cccn1)cn2[C@H]1C[C@H](O)[C@@H](C(=O)Nc2ccc3ccc(N4CCC4)nc3c2)O1 [Compound I-13] | – | IC50 ([1]; Table 3): ≥ 1 µM; IC50 ([2]; Table 3): < 0.01 µM
Cn1ccc(-c2cn([C@@H]3O[C@H](C(=O)N[C@H]4C[C@@H](O)C4)[C@@H](O)[C@H]3O)c3ncnc(N)c23)n1 [Compound I-214] | ≥ 1 µM | IC50 ([1]; Table 4): ≥ 1 µM
CN1CCC(CNC(=O)[C@H]2O[C@@H](n3cc(-c4ccn(C)n4)c4c(N)ncnc43)[C@H](O)[C@@H]2O)CC1 [Compound I-24] | – | IC50 ([1]; Table 3): 0.01 to 0.1 µM; IC50 ([2]; Table 3): 0.1 to 1 µM
Cn1ccc(-c2cn([C@@H]3O[C@H](C(=O)NCc4cnccn4)[C@@H](O)[C@H]3O)c3ncnc(N)c23)n1 [Compound I-20] | – | IC50 ([1]; Table 3): ≥ 1 µM; IC50 ([2]; Table 3): 0.1 to 1 µM
Nc1ncnc2c1c(-n1cccn1)cn2[C@H]1C[C@H](O)[C@@H](C(=O)Nc2ccc3nc(NC4CCC4)[nH]c3c2)O1 [Compound I-30] | – | IC50 ([1]; Table 3): 0.1 to 1 µM; IC50 ([2]; Table 3): < 0.01 µM
COCCN(C(=O)[C@H]1O[C@@H](n2cc(-c3ccn(C)n3)c3c(N)ncnc32)[C@H](O)[C@@H]1O)C1CCNCC1 [Compound I-6] | – | IC50 ([1]; Table 3): < 0.01 µM; IC50 ([2]; Table 3): ≥ 1 µM
Cn1ccc(-c2cn([C@@H]3O[C@H](C(=O)NCC4CCOCC4)[C@@H](O)[C@H]3O)c3ncnc(N)c23)n1 [Compound I-21] | – | IC50 ([1]; Table 3): ≥ 1 µM; IC50 ([2]; Table 3): 0.1 to 1 µM
Cn1ccc(-c2cn([C@@H]3O[C@H](C(=O)N4CCc5[nH]cnc5C4)[C@@H](O)[C@H]3O)c3ncnc(N)c23)n1 [Compound I-217] | 0.1 to 1 µM | IC50 ([1]; Table 4): 0.01 to 0.1 µM
CN1CCC(N(CC2CN(C)C2)C(=O)[C@H]2O[C@@H](n3cc(-c4ccn(C)n4)c4c(N)ncnc43)[C@H](O)[C@@H]2O)CC1 [Compound I-47] | ≥ 1 µM | IC50 ([1]; Table 4): 0.01 to 0.1 µM
Cn1ccc(-c2cn([C@@H]3O[C@H](C(=O)NC4CCn5ccnc5C4)[C@@H](O)[C@H]3O)c3ncnc(N)c23)n1 (some centres unmarked) [Compound I-207] | 0.1 to 1 µM | IC50 ([1]; Table 4): 0.1 to 1 µM
CN1CCC(N(CCCNC(=O)OCc2ccccc2)C(=O)[C@H]2O[C@@H](n3cc(-c4ccn(C)n4)c4c(N)ncnc43)[C@H](O)[C@@H]2O)CC1 [Compound I-49, benzyl N-(3-{1-[(2S,3S,4R,5R)-5-[4-amino-5-(1-methyl-1H-pyrazol-3-yl)-7H-pyrrolo[2,3-d]pyrimidin-7-yl]-3,4-dihydroxyoxolan-2-yl]-N-(1-methylpiperidin-4-yl)formamido}propyl)carbamate] | 0.1 to 1 µM | IC50 ([1]; Table 4): 0.01 to 0.1 µM
Cn1ccc(-c2cn([C@@H]3O[C@H](C(=O)NCCCN4CCCC4=O)[C@@H](O)[C@H]3O)c3ncnc(N)c23)n1 [Compound I-129] | 0.1 to 1 µM | –
Cn1ccc(-c2cn([C@@H]3O[C@H](C(=O)NCCc4ccc5ccccc5c4)[C@@H](O)[C@H]3O)c3ncnc(N)c23)n1 [Compound I-134] | 0.1 to 1 µM | –
Cn1ccc(-c2cn([C@@H]3O[C@H](C(=O)N[C@@H](CO)c4ccccc4)[C@@H](O)[C@H]3O)c3ncnc(N)c23)n1 [Compound I-88] | ≥ 1 µM | –
Nc1ncnc2c1c(-n1cccn1)cn2[C@H]1C[C@H](O)[C@@H](C(=O)Nc2ccc3ccc(NC4CCC4)nc3c2)O1 [Compound I-16] | – | IC50 ([2]; Table 3): < 0.01 µM
CC(CNC(=O)[C@H]1O[C@@H](n2cc(-c3ccn(C)n3)c3c(N)ncnc32)[C@H](O)[C@@H]1O)c1ccccc1 (some centres unmarked) [Compound I-101] | 0.1 to 1 µM | –

Compound | IC50 ([2]; Table 4) | other results
Cn1ccc(-c2cn([C@@H]3O[C@H](C(=O)N[C@H](CO)c4ccccc4)[C@@H](O)[C@H]3O)c3ncnc(N)c23)n1 [Compound I-87] | ≥ 1 µM | –
Cn1ccc(-c2cn([C@@H]3O[C@H](C(=O)Nc4ccc(CN5CCS(=O)(=O)CC5)cc4)[C@@H](O)[C@H]3O)c3ncnc(N)c23)n1 [Compound I-125] | 0.1 to 1 µM | –
CC(C)c1nnc(NC(=O)[C@H]2O[C@@H](n3cc(-c4ccn(C)n4)c4c(N)ncnc43)[C@H](O)[C@@H]2O)s1 [Compound I-70] | ≥ 1 µM | –
CC(C)OCCNC(=O)[C@H]1O[C@@H](n2cc(-c3ccn(C)n3)c3c(N)ncnc32)[C@H](O)[C@@H]1O [Compound I-73] | ≥ 1 µM | –
CN(C)S(=O)(=O)c1cccc(NC(=O)[C@H]2O[C@@H](n3cc(-c4ccn(C)n4)c4c(N)ncnc43)[C@H](O)[C@@H]2O)c1 [Compound I-90] | ≥ 1 µM | –
CC(=O)Nc1ccccc1NC(=O)[C@H]1O[C@@H](n2cc(-c3ccn(C)n3)c3c(N)ncnc32)[C@H](O)[C@@H]1O [Compound I-130] | 0.1 to 1 µM | –
Cc1ccc2nc(NC(=O)[C@H]3O[C@@H](n4cc(-c5ccn(C)n5)c5c(N)ncnc54)[C@H](O)[C@@H]3O)sc2c1 [Compound I-68] | ≥ 1 µM | –
Cn1ccc(-c2cn([C@@H]3O[C@H](C(=O)Nc4ccc5nsnc5c4)[C@@H](O)[C@H]3O)c3ncnc(N)c23)n1 [Compound I-94] | 0.1 to 1 µM | –
Cn1ccc(-c2cn([C@@H]3O[C@H](C(=O)NCCN4CCOCC4)[C@@H](O)[C@H]3O)c3ncnc(N)c23)n1 [Compound I-65] | ≥ 1 µM | –
Cn1ccc(-c2cn([C@@H]3O[C@H](C(=O)NC4CCC(O)CC4)[C@@H](O)[C@H]3O)c3ncnc(N)c23)n1 (some centres unmarked) [Compound I-103] | 0.1 to 1 µM | –
Cn1ccc(-c2cn([C@@H]3O[C@H](C(=O)Nc4ccnn4C)[C@@H](O)[C@H]3O)c3ncnc(N)c23)n1 [Compound I-109] | 0.1 to 1 µM | –
Cn1ccc(-c2cn([C@@H]3O[C@H](C(=O)NCc4ccc5ccccc5c4)[C@@H](O)[C@H]3O)c3ncnc(N)c23)n1 [Compound I-131] | 0.1 to 1 µM | –
CC(O)CNC(=O)[C@H]1O[C@@H](n2cc(-c3ccn(C)n3)c3c(N)ncnc32)[C@H](O)[C@@H]1O (some centres unmarked) [Compound I-81] | ≥ 1 µM | –
Cc1cc(CNC(=O)[C@H]2O[C@@H](n3cc(-c4ccn(C)n4)c4c(N)ncnc43)[C@H](O)[C@@H]2O)no1 [Compound I-106] | 0.1 to 1 µM | –
Cn1ccc(-c2cn([C@@H]3O[C@H](C(=O)NC4Cc5ccccc5C4)[C@@H](O)[C@H]3O)c3ncnc(N)c23)n1 [Compound I-126] | 0.1 to 1 µM | –
Cc1nc2cc(NC(=O)[C@H]3O[C@@H](n4cc(-c5ccn(C)n5)c5c(N)ncnc54)[C@H](O)[C@@H]3O)ccc2o1 [Compound I-141] | 0.01 to 0.1 µM | –
